Assay: Inhibition of thapsigargin-induced SOCE channel in fura-2 loaded human Jarkart T cells in presence of 2 mM calcium
Settings: Jurkat
With `NCCOB(c1ccccc1)c1ccccc1` the IC50 was 15000 nM.
`NCCOB(c1ccccc1)c1cccc(COCc2cccc(B(OCCN)c3ccccc3)c2)c1` gave an IC50 of 320 nM.
`NCCOB(c1ccccc1)c1ccc(Oc2ccc(B(OCCN)c3ccccc3)cc2)cc1` gave an IC50 of 410 nM.
Work on `NCCOB(c1ccccc1)c1ccc(CCOCc2ccc(B(OCCN)c3ccccc3)cc2)cc1` yielded an IC50 of 310 nM.
`Cc1ccc(B(OCCN)c2ccc(Oc3ccc(B(OCCN)c4ccc(C)c(Cl)c4)cc3)cc2)cc1Cl` gave an IC50 of 640 nM.
In the case of `NCCOB(c1ccccc1)c1ccc(COCc2ccc(B(OCCN)c3ccccc3)cc2)cc1`, the IC50 is reported as 430 nM.
Work on `NCCOB(c1ccccc1)c1ccc(-c2ccc(B(OCCN)c3ccccc3)cc2)cc1` yielded an IC50 of 450 nM.
With `NCCOB(c1ccccc1)c1cccc(COCc2cccc(Oc3ccccc3)c2)c1` the IC50 was 1900 nM.

From ChEMBL document CHEMBL1156903, “Synthesis of bisboron compounds and their strong inhibitory activity on store-operated calcium entry” (Bioorg Med Chem Lett, 2010)
